For orientation: IC50 means the concentration needed to halve the response being measured.

The assay relates to T-type calcium channels. As to the kind of experiment: T-type calcium channel inhibitory activity (fluorometric FLIPR Fluo-4 and whole cell patch clamp). The assay is classed as cell-based, mammalian. The note with it: inhibition of T-type calcium channels; cells natively expressing or HEK-293 cells expressing recombinant channels. How it is done: T-type calcium channel inhibitory activity of some compounds of the invention was evaluated using both fluorometric as well as electrophysiological measurement methodologies, which are known to those skilled in the art. Fluorescence measurement of changes in intracellular calcium due to entry of calcium through T-type calcium channels was assessed using calcium sensitive fluorescent dyes Fluo-4 and Fluo-3. In brief, cells natively expressing T-type channels or HEK-293 cells transiently or stably expressing recombinant mammalian T-type calcium channels grown in 96-well tissue culture plates in DMEM/High glucose, Hyclone, Fetal Bovine Serum (10%), and 2 mM sodium pyruvate 2 mM (and for cells lines recombinantly expressing T-type calcium channels, G418 @ 400 mg/liter) were loaded with 4 μM Fluo-4 made up in Earls Balanced Salt Solution (EBSS). After incubation for 30 minutes at room temperature, cells were washed with low calcium (0.5 mM) EBSS to remove extracellular Fluo-4. Baseline fluorescence was measured in a FLIPR (FLuorescence Image Plate Reader) (Molecular Devices Inc) after applying test compounds at desired concentration for 5-10 minutes. The effect of test compound on calcium entry was assessed by monitoring changes in Fluo-4 fluorescence following an elevation of extracellular calcium concentration from 0.5 mM to 5 mM. […] Native cells natively expressing T-type channels or HEK-293 cells transiently or stably expressing recombinant mammalian T-type calcium channels were grown in DMEM/High glucose, Hyclone, Fetal Bovine Serum (10%), 2 mM sodium pyruvate 2 mM (and for cells lines recombinantly expressing T-type calcium channels, G418 @ 400 mg/liter) on glass coverslips in 35 mm tissue culture dishes. Experiments were performed by placing T-type calcium channels expressing cells in a recording chamber perfused with EBSS (which contains (in mM): 132 NaCl, 5.4 KCl, 1.8 CaCl2, 0.8 MgCl2, 10 Hepes, 5 glucose, pH 7.4 with NaOH) on the stage of an inverted microscope. Electrical currents were measured using the whole cell configuration of the patch clamp technique (Axopatch 200B, Axon Instruments (Molecular Devices) (see Hamill et al (1981) Pflugers Arch. 1981 391:85-100) using 2-2.5 MOhm resistance glass pipettes filled with 135 CsF, 5 CsCl, 5 NaCl, 5 EGTA, 10 HEPES, pH 7.3 with CsOH, Osmolarity ˜288 mOsm. Test compound effects were typically assessed under conditions in which approximately half of the available channels were inactivated either by an 8 second conditioning depolarization from a holding potential of −100 mV to a potential ranging from −70 mV to −60 mV or by continually holding the membrane potential at −70 mV. Test compounds were assessed for their ability to reduce the amplitude of the inward T-type calcium current elicited by a 100 ms step depolarization −20 or −30 mV.
On the technique in general: In patch-clamp work, channel activity is measured electrically.
Regarding `CCOc1cccc(S(=O)(=O)c2cnc(Nc3cc(OCCN(C)C)nc(C(F)(F)F)n3)s2)c1` [Example 28, [6-(2-Dimethylamino-ethoxy)-2-trifluormethyl-pyrimidin-4-yl]-[5-(3-Ethoxy-benzenesulfonyl)-thiazol-2-yl]-amine], the IC50 was in the range of 1 to 1000 nM. For the molecule `CCOc1cccc(S(=O)(=O)c2cnc(Nc3cc(C#CCOC)nc(C)n3)s2)c1` [Example 29, [5-(3-Ethoxy-benzenesulfonyl)-thiazol-2-yl]-[6-(3-methoxy-prop-1-ynyl)-2-methyl-pyrimidin-4-yl]-amine], the IC50 was 1000 to 10000 nM. With `CCOc1cccc(S(=O)(=O)c2cnc(Nc3cc(C#CCN(C)C(=O)OC(C)(C)C)nc(C)n3)s2)c1` [Example 30, (3-{6-[5-(3-Ethoxy-benzenesulfonyl)-thiazol-2ylamino]-2-methyl-pyrimidin-4-yl}-prop-2-ynyl)-methyl-carbamic acid tert-butyl ester], the IC50 fell in the range of 1 to 1000 nM. The result for `CCOc1cccc(S(=O)(=O)c2cnc(Nc3cc(C#CC(C)(C)N(C)C(=O)OC(C)(C)C)nc(C)n3)s2)c1` [Example 31, (3-{6-[5-(3-Ethoxy-benzenesulfonyl)-thiazol-2ylamino]-2-methyl-pyrimidin-4-yl}-1,1-dimethyl-prop-2-ynyl)-methyl-carbamic acid tert-butyl ester] reads 1 to 1000 nM. Regarding `CCOc1cccc(S(=O)(=O)c2cnc(Nc3cc(CCCOC)nc(C)n3)s2)c1` [Example 32, [5-(3-Ethoxy-benzenesulfonyl)-thiazol-2-yl]-[6-(3-methoxy-propyl)-2-methyl-pyrimidin-4-yl]-amine], the IC50 fell in the range of 1 to 1000 nM.

For `CCOc1cccc(S(=O)(=O)c2cnc(Nc3cc(CCC(C)(C)N)nc(C)n3)s2)c1` [Example 36, [6-(3-Amino-3-methyl-butyl)-2-methyl-pyrimidin-4-yl]-[5-(3-ethoxy-benzenesulfonyl)-thiazol-2yl]-amine], the IC50 lay in the range of 1 to 1000 nM.

On to “[5-(3-Ethoxy-benzenesulfonyl)-thiazol-2-yl]-[6-(3-methylamino)propyl)-2-methyl-pyrimidin-4-yl]-amine [Example 35]”, for which the IC50 was 1 to 1000 nM.
